ChEMBL document CHEMBL4888484, “Replenishing the malaria drug discovery pipeline: Screening and hit evaluation of the MMV Hit Generation Library 1 (HGL1) against asexual blood stage Plasmodium falciparum ,using a nano luciferase reporter read-out” (2022)

Columns and labels:
[1] = tested on: Plasmodium falciparum; assay: Hit confirmation in dose-response curve in NF54 pLDH assay, at 72h; format: functional, organism-based; parameters: timepoint 72 hour; conditions: NF54, Erythrocyte
[2] = tested on: Plasmodium falciparum; assay: Hit confirmation in dose-response curve in Dd2 pLDH assay, at 72h; format: functional, organism-based; parameters: timepoint 72 hour; conditions: Dd2, Erythrocyte
[3] = tested on: Plasmodium falciparum; assay: Hit confirmation in dose-response curve in NF54 nanoGlo assay, at 72h; format: functional, organism-based, Erythrocyte; parameters: timepoint 72 hour; conditions: Plasmodium falciparum, NF54, Erythrocyte, 72 h
[4] = tested on: Plasmodium falciparum; assay: Hit confirmation in dose-response curve in NF54 nanoGlo assay, at 12h; format: functional, organism-based, Erythrocyte; parameters: timepoint 12 hour; conditions: Plasmodium falciparum, NF54, Erythrocyte, 12 h
[5] = Hit confirmation in dose-response curve in HepG2 cytotoxicity assay, at 72h; format: toxicity, cell-based; parameters: timepoint 72 hour; conditions: human, HepG2 cells

| SMILES | IC50 [1] | IC50 [2] | IC50 [3] | IC50 [4] | IC50 at 72 h [5] |
| --- | --- | --- | --- | --- | --- |
| CC1CCC(c2noc([C@H]3CCO[C@@H]3c3cncc(Br)c3)n2)CC1 (some centres not stated) | 4.47 µM | 3.89 µM | 2.88 µM | > 10 µM | > 10 µM |
| O=C(N[C@H]1CC[C@@H]2CCC[C@@H]21)c1c[nH]c(=O)c(Cl)c1 | 3.98 µM | 5.13 µM | 2.19 µM | 2.45 µM | > 10 µM |
| CCN(C(=O)Cn1cc(-c2ccccc2)c2ncn(CC)c(=O)c21)c1ccccc1 | > 10 µM | > 10 µM | 0.759 µM | 0.363 µM | > 10 µM |
| O=C(NC1=NN2C(=NC(c3ccc(Cl)cc3)=C[C@H]2c2ccc(F)cc2)N1)c1ccc(Cl)cc1 | 2.95 µM | 3.16 µM | 2.29 µM | 4.17 µM | > 10 µM |
| COc1nc(-c2cccc(C(=O)NCC3CCOCC3)c2)ncc1F | 1.66 µM | > 10 µM | 0.575 µM | > 10 µM | > 10 µM |
| O=C(Nc1ccccc1)Nc1cnc(-n2ccnc2)nc1 | 3.55 µM | 5.5 µM | 2.63 µM | 4.68 µM | > 10 µM |
| Oc1cccc(CN[C@H]2CCCc3occc32)c1Cl | 2.75 µM | 2.75 µM | 1.58 µM | 2.04 µM | > 10 µM |
| COc1ccc(C(=O)C[n+]2cc(-c3ccc(OC)cc3)n3c2CCCC3)cc1 | 2.34 µM | 1.48 µM | 1.41 µM | > 10 µM | > 10 µM |
| N[C@H]1C[C@@H](c2cc(N3CCN(C4CCCCC4)CC3)nc(N3CCCC3)n2)C1 | 4.17 µM | 2.29 µM | 2 µM | 5.75 µM | > 10 µM |
| C[C@@H](CN)N(C)c1ccnc2cc(Br)cnc12 | 0.562 µM | 0.447 µM | 0.513 µM | 0.661 µM | > 10 µM |
| O=C1NC(=O)c2ccc3c4c(ccc1c24)C(=O)N(c1ccccc1)C3=O | 3.55 µM | 1.66 µM | 6.03 µM | > 10 µM | > 10 µM |
| Cn1c(=O)c2c(-c3ccc(Cl)cc3)n(-c3cccc4cccc(N)c34)cc2n(C)c1=O | 0.0182 µM | > 10 µM | > 10 µM | > 10 µM | > 10 µM |
| O=C(NCCN1CCCC1)c1ccc2nc(-c3ccc(Cl)cc3)cn2c1 | 2.69 µM | 2.63 µM | 2.63 µM | 4.07 µM | > 10 µM |
| O=C1NC(c2ccccc2)=NC12CCN(Cc1c(F)cccc1F)CC2 | 6.46 µM | 4.27 µM | 2.09 µM | > 10 µM | > 10 µM |
| CNC(=O)[C@@H]1C[C@H](NCc2cc(OC)c(OC)c(OC)c2)CN1CC(c1ccccc1)c1ccccc1 | 3.63 µM | 2.82 µM | 2.14 µM | 3.63 µM | > 10 µM |
| Cn1nccc1/C=C1\CC2C3CCc4cc(O)ccc4C3CCC2(C)C1O (configuration not stated) | > 10 µM | > 10 µM | > 10 µM | > 10 µM | > 10 µM |
| Cc1cnccc1NCCNC1CCN(c2ccc(Cl)cc2)CC1 | 0.363 µM | 0.372 µM | 0.316 µM | 0.417 µM | 5.25 µM |
| O=C(Nc1cnc(-n2ccnc2)nc1)C(c1ccccc1)c1ccccc1 | 3.98 µM | 5.25 µM | 2.45 µM | 7.94 µM | > 10 µM |
| O=C(c1ccccc1)c1ccc(O)c(CN2CCCN(c3ccc(C(F)(F)F)cn3)CC2)c1O | 3.72 µM | 3.09 µM | 1.82 µM | 2.82 µM | > 10 µM |
| C=Cn1cc[n+](CC(=O)c2ccc(-c3ccccc3)cc2)c1 | 3.47 µM | 2.63 µM | 3.09 µM | > 10 µM | > 10 µM |
| COc1cccc(NC(=O)Cn2c(C)ccc(NS(=O)(=O)c3ccc(C)cc3)c2=O)c1 | 7.94 µM | 3.63 µM | 3.24 µM | 9.12 µM | > 10 µM |
| CCCCCn1c(NCc2cc(Cl)ccc2O)nc2ccccc21 | 8.71 µM | 7.41 µM | 3.63 µM | 6.76 µM | > 10 µM |
| O=C(Nc1ccc(Cl)c(Cl)c1)Nc1ccc(Cl)cc1NC(=O)Nc1ccc(Cl)c(Cl)c1 | 6.92 µM | 4.47 µM | 2.04 µM | 3.31 µM | > 10 µM |
| CC1CC(Nc2ncnc3cc(Br)ccc23)CCN1C (configuration not stated) | 1.58 µM | 1.07 µM | 1.05 µM | 1.55 µM | > 10 µM |
| CC(C(=O)Nc1nccs1)N1CCCC(c2ccn[nH]2)C1 (configuration not stated) | 7.24 µM | 3.09 µM | 3.09 µM | > 10 µM | > 10 µM |

| SMILES | IC50 [1] | IC50 [2] | IC50 [3] | IC50 [4] | IC50 at 72 h [5] |
| --- | --- | --- | --- | --- | --- |
| COc1ccc(C(=O)C[n+]2nc(CNc3ccc(Br)cc3)n3c2CCCCC3)cc1 | 0.759 µM | 0.646 µM | 0.537 µM | 9.55 µM | > 10 µM |
| O=C(N[C@@H](Cn1nccn1)c1ccccc1)c1cc(Br)ccc1Cl | 2.75 µM | 2.95 µM | 1.74 µM | > 10 µM | > 10 µM |
| CCOc1ccc(-[n+]2cc(-c3ccccc3)n3c2CCC3)cc1 | 0.759 µM | 1 µM | 0.832 µM | > 10 µM | > 10 µM |
| C[n+]1ccccc1/C=C/c1c[nH]c2ccccc12 | 0.676 µM | 0.437 µM | 0.407 µM | 5.01 µM | 7.94 µM |
| Cc1nnc(CNC(=O)Nc2cccc3c4c(oc23)CCCC4)o1 | 2.19 µM | 2.63 µM | 2.14 µM | 2.88 µM | > 10 µM |
| COc1ccc(CCNc2oc(-c3cccnc3)nc2C#N)cc1OC | > 10 µM | > 10 µM | 3.98 µM | 2.4 µM | > 10 µM |
| Cc1cc(NC(=O)c2ccccn2)n(-c2nc3ccccc3o2)n1 | 3.63 µM | 3.16 µM | 0.457 µM | > 10 µM | > 10 µM |
| Cc1ccc(S(=O)(=O)c2c(NS(=O)(=O)c3ccc(F)cc3)n(CCc3ccccc3)c3nc4ccccc4nc23)cc1 | 4.37 µM | 4.07 µM | 1.7 µM | 2.75 µM | > 10 µM |
| CCCN(CCC)CCN1C(=O)[C@@H]2C(C(=O)Nc3cc(Cl)cc(Cl)c3)[C@@H]3C=C[C@]2(O3)C1C(=O)NC1CCCCC1 (some centres not stated) | 3.72 µM | 3.02 µM | 2.51 µM | > 10 µM | > 10 µM |
| CN(C)CCN(C)c1ccc(Br)cc1NCc1cncn1C | 3.47 µM | 2.95 µM | 2 µM | 3.72 µM | > 10 µM |
| CC(C)N1C(=O)NC(=O)C2(Cc3ccccc3N3CCN(Cc4ccccc4)CC32)C1=O (configuration not stated) | > 10 µM | > 10 µM | 3.98 µM | > 10 µM | > 10 µM |
| O=C(Nc1[nH]c(=O)ncc1F)c1cc(F)c(F)cc1Br | 0.00166 µM | > 10 µM | 0.00191 µM | 0.501 µM | > 10 µM |
| CCN(CC)CC(O)COc1c(Br)cc(C(C)(C)c2cc(Br)c(OCC(O)CN(CC)CC)c(Br)c2)cc1Br (configuration not stated) | 1.29 µM | 1.12 µM | 0.603 µM | 1.2 µM | 5.75 µM |
| COc1ccc(-c2c(-c3cccc(OC)c3)[nH]c3c2c(=O)[nH]c(=O)n3C)cc1 | > 10 µM | > 10 µM | > 10 µM | > 10 µM | > 10 µM |
| Cc1c(-c2ccc(F)cc2)[nH]c2ccc(CNc3nccc(N(C)C)n3)cc12 | 3.8 µM | 3.31 µM | 1.95 µM | 3.89 µM | > 10 µM |
| CN1CCN(C2(CNc3ccnc4ccccc34)CCCC2)CC1 | 0.38 µM | 0.355 µM | 0.479 µM | 0.708 µM | > 10 µM |
| O=C(Nc1[nH]c(=O)ncc1F)c1cccc2ccccc12 | 0.0105 µM | > 10 µM | 0.00617 µM | 1.95 µM | > 10 µM |
| CN(Cc1ccc(-c2ccccc2)cc1)c1cc([C@H]2C[C@@H](N)C2)nc(N)n1 | 4.17 µM | 3.24 µM | 2.19 µM | 3.98 µM | > 10 µM |
| CN(Cc1ccsc1)C(=O)c1cc2ccccc2[nH]1 | > 10 µM | > 10 µM | > 10 µM | > 10 µM | > 10 µM |
| COc1c2c(cc3c1[C@@H](C#CCOc1ccccc1)[N+](C)(C)CC3)OCO2 | 3.31 µM | 1.91 µM | 1.66 µM | > 10 µM | > 10 µM |
| CCOc1ccc2ccccc2c1C(=O)Nc1cc(C)nn1-c1nc2c(c(=O)[nH]1)CCC2 | 2 µM | 2.09 µM | 0.589 µM | > 10 µM | > 10 µM |
| CC(Oc1ccc2c(c1)C(c1ccccc1)N(Cc1ccccc1F)CC2)C(=O)NC1CC1 (configuration not stated) | 7.59 µM | 3.47 µM | 2.69 µM | > 10 µM | > 10 µM |
| COc1ccc(-c2nn3c(N4CCN(CC=Cc5ccccc5)CC4)cc(C)nc3c2C)cc1OC | 7.76 µM | 5.37 µM | 1.74 µM | 3.89 µM | > 10 µM |
| COc1cc(OC)cc(C(=O)Nc2ccc3nc(N4CCC(C)CC4)cc(C)c3c2)c1 | > 10 µM | 5.01 µM | 3.16 µM | 6.76 µM | > 10 µM |
| NC(=O)C1CCN(CCC(=O)N2CCc3cc4ccc3[C@@H]2c2cccc(c2)OCCCNC(=O)c2cc(ccc2O)O4)CC1 | – | – | – | 3.16 µM | > 10 µM |
